Counter-ions that a name gives are not always drawn.
What was measured:
[1] = test system: hypercholesterolemic Sprague Dawley rats; test: Plasma triglyceride and cholesterol lowering activity in hypercholesterolemic rat models; type: in vivo; conditions: 10 mg/kg orally for 3 days; for HDL (%) ↑: increase; for Total Cholesterol (%) ↓ / Triglyceride (%) ↓ / LDL (%) ↓ / VLDL (%) ↓: reduction; for LDL (%) ↓: LDL calculated from total cholesterol; for LDL (%) ↓ / VLDL (%) ↓: HDL and triglyceride; for VLDL (%) ↓: VLDL calculated from total cholesterol
Protocol: b) Plasma Triglyceride and Cholesterol Lowering Activity in Hypercholesterolemic Rat Models
Male Sprague Dawley rats (NIN stock) were bred in DRF animal house. Animals were maintained under 12 hour light and dark cycle at 25±1° C. Rats of 180-200 gram body weight range were used for the experiment. Animals are made hypercholesterolemic by feeding 2% cholesterol and 1% sodium cholate mixed with standard laboratory chow [National Institute of Nutrition (NIN), Hyderabad, India] […] for 6 days. Throughout the experimental period the animals were maintained on the same diet (Petit, D., Bonnefis, M. T., Rey, C and Infante, R. Effects of ciprofibrate on liver lipids and lipoprotein synthesis in normo- and hyperlipidemic rats. Atherosclerosis. 1988. 74 : 215-225).
The test compounds can be administered orally at a dose 0.1 to 30 mg/kg/day for 3 days. Control group was treated with vehicle alone (0.25% Carboxymethylcellulose; dose 10 ml/kg).
The blood samples were collected in fed state 1 hour after drug administration on 0 and 3 day of compound treatment. The blood was collected from the retro-orbital sinus through heparinsed capillary in EDTA containing tubes. After centrifugation, plasma sample was separated for total cholesterol, HDL and triglyceride estimations. Measurement of plasma, triglyceride, total cholesterol and HDL are were done using commercial kits (Dr. Reddy's Laboratory, Diagnostic Division, India). LDL and VLDL cholesterol were calculated from the data obtained for total cholesterol, HDL and triglyceride. The reduction of various parameters examined are calculated according to the formula.
(§1) 1. Percent reduction in Blood sugar/triglycerides/total cholesterol will be calculated according to the formula:
(§2) [formula] • OC=Zero day control group value • OT=Zero day treated group value • TC=Test day control group value • TT=Test day treated group value
2. LDL and VLDL cholesterol levels will be calculated according to the formula:
[formula] VLDL cholesterol in mg/dl=[Total cholesterol−HDL cholesterol−LDL cholesterol]mg/dl.

[2] = test system: C57BL/KsJ-db/db mice; test: Blood sugar and triglyceride lowering in db/db mice; type: in vivo; conditions: 3 mg/kg oral gavage daily for 6 days
Source text: Mutation in colonies of laboratory animals and different sensitivities to dietary regimens have made the development of animal models with non-insulin dependent diabetes and hyperlipidemia associated with obesity and insulin resistance possible. Genetic models such as db/db and ob/ob (Diabetes, (1982) 31(1): 1-6) mice and zucker fa/fa rats have been developed by the various laboratories for understanding the pathophysiology of disease and testing the efficacy of new antidiabetic compounds (Diabetes, (1983) 32: 830-838; Annu. Rep. Sankyo Res. Lab. (1994). 46: 1-57). The homozygous animals, C57 BL/KsJ-db/db mice developed by Jackson Laboratory, US, are obese, hyperglycemic, hyperinsulinemic and insulin resistant (J. Clin. Invest., (1990) 85 : 962-967), whereas heterozygous are lean and normoglycemic. In db/db model, mouse progressively develops insulinopenia with age, a feature commonly observed in late stages of human type II diabetes when blood sugar levels are insufficiently controlled. The state of pancreas and its course vary according to the models. Since this model resembles that of type II diabetes mellitus, the compounds of the present invention will be tested for blood sugar and triglycerides lowering activities.
Male C57BL/KsJ-db/db mice of 8 to 14 weeks age, having body weight range of 35 to 60 grams, bred at Dr. Reddy's Research Foundation (DRF) animal house, were used in the experiment. The mice are provided with standard feed (National Institute of Nutrition (NIN), Hyderabad, India) and acidified water, ad libitum. The animals having more than 350 mg/dl blood sugar will be used for testing. The number of animals in each group was 4.
Test compounds are suspended on 0.25% carboxymethyl cellulose and administered to test group at a dose of 0.1 mg to 30 mg/kg through oral gavage daily for 6 days. The control group receives vehicle (dose 10 ml/kg). On 6th day the blood samples will be collected one hour after administration of test compounds/vehicle for assessing the biological activity.
The random blood sugar and triglyceride levels can be measured by collecting blood (100 μl) through orbital sinus, using heparinised capillary in tubes containing EDTA which was centrifuged to obtain plasma. The plasma glucose and triglyceride levels can be measured spectrometrically, by glucose oxidase and glycerol-3-PO4 oxidase/peroxidse enzyme (Dr. Reddy's Lab. Diagnostic Division Kits, Hyderabad, India) methods respectively.
The blood sugar and triglycerides lowering activities of the test compound are calculated according to the formula.
1. Percent reduction in Blood sugar/triglycerides/total cholesterol will be calculated according to the formula: […]

[3] = biological target: T1, hPPARγ (Homo sapiens, UniProt P37231); test: Determination of hPPARγ activity (GAL4 fusion luciferase reporter in HEK-293 cells); type: cell-based; conditions: compound concentration 1 μM
T1 construct: expressed in transfected cells; host or cells: HEK-293
T1 sequence (P37231 238-503 limits assumed): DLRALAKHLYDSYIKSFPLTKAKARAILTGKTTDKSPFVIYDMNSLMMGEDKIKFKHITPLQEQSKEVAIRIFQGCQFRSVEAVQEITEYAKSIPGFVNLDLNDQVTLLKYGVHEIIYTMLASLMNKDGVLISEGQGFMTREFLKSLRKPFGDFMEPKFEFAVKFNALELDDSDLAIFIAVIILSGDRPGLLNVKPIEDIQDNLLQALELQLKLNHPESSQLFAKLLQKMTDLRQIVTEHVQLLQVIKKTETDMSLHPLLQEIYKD
Protocol: b) Determination of hPPARγ Activity
Ligand binding domain of hPPARγ is fused to DNA binding domain of Yeast transcription factor GAL4 in eucaryotic expression vector. Using lipofectamine (Gibco BRL, USA) as transfecting reagent HEK-293 cells are transfected with this plasmid and a reporter plasmid harboring the luciferase gene driven by a GAL4 specific promoter. Compound can be added at 1 μM concentration after 48 hrs of transfection and incubated overnight Luciferase activity as a function of drug binding/activation capacity of PPARγ1 will be measured using Packard Luclite kit (Packard, USA) in Packard Top Cout (Ivan Sadowski, Brendan Bell, Peter Broag and Melvyn Hollis. Gene. 1992. 118: 137-141; Guide to Eukaryotic Transfections with Cationic Lipid Reagents. Life Technologies, GIBCO BRL, USA).

[4] = test system: Swiss albino mice; test: Plasma triglyceride and total cholesterol lowering activity in Swiss albino mice and guinea pigs; type: in vivo; conditions: 10 mg/kg orally for 6 days; species not named
Protocol: c) Plasma Triglyceride and Total Cholesterol Lowering Activity in Swiss Albino Mice and Gunie Pigs
Male Swiss albino mice (SAM) and male Guinea pigs were obtained from NIN and housed in DRF animal house. All these animals are maintained under 12 hour light and dark cycle at 25±1° C. Animals were given standard laboratory chow (NIN, Hyderabad, India) and water, ad libitum. SAM of 20-25 g body weight range and Guinea pigs of 500-760 g body weight range are used (Oliver, P., Plancke, M. O., Marzin, D., Clavey, V., Sauzieres, J and Fruchatt, J. C. Effects of fenofibrate, gemfibrozil and nicotinic acid on plasma lipoprotein levels in normal and hyperlipidemic mice. Atherosclerosis. 1988. 70 : 107-114).
The test compounds were administered orally to Swiss albino mice at 0.3 to 30 mg/kg/day dose for 6 days. Control mice are treated with vehicle (0.25% Carboxymethylcellulose; dose 10 ml/kg). The test compounds are administered orally to Guinea pigs at 0.3 to 30 mg/kg/day dose for 6 days. Control animals are treated with vehicle (0.25% Carboxymethylcellulose; dose 5 ml/kg).
The blood samples were collected in fed state 1 hour after drug administration on 0 and 6 day of treatment The blood was collected from the retro-orbital sinus through heparinised capillary in EDTA containing tubes. After centrifugation, plasma sample was separated for triglyceride and total cholesterol (Wieland, O. Methods of Enzymatic analysis. Bergermeyer, H. O., Ed., 1963. 211-214; Trinder, P. Ann. Clin. Biochem. 1969. 6: 24-27). Measurement of plasma triglyceride were done using commercial kits (Dr. Reddy's Diagnostic Division, Hyderabad, India).
as §1, §2

[5] = biological target: T2, hPPARα (Homo sapiens, UniProt Q07869); test: Determination of hPPARα activity (GAL4 fusion luciferase reporter in HEK-293 cells); type: cell-based; conditions: compound concentration 50 μM
T2 construct: expressed in transfected cells; host or cells: HEK-293
T2 sequence (Q07869 239-466 limits assumed): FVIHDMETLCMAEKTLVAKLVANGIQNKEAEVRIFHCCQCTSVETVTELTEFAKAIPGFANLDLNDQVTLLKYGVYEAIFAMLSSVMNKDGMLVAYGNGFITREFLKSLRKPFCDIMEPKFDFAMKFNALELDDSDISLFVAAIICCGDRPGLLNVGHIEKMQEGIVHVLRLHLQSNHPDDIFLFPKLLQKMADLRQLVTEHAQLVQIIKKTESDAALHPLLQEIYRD
Protocol: a) Determination of hPPARα Activity
Ligand binding domain of hPPARα was fused to DNA binding domain of Yeast transcription factor Gal 4 in eucaryotic expression vector. Using superfect (Qiagen, Germany) as transfecting reagent HEK-293 cells are transfected with this plasmid and a reporter plasmid harboring the luciferace gene driven by a GAL4 specific promoter. Compound can be added at different concentrations after 42 hrs of transfection and incubated overnight. Luiciferase activity as a function of compound binding/activation capacity of PPARα will be measured using Packard Luclite kit (Packard, USA) in Top Count (Ivan Sadowsi, Brendan Bell, Peter Broag and Melvyn Hollis. Gene. 1992. 118: 137-141; Superfect Transfetion Reagent Handbook February 1997. Qiagen, Germany.

For CCOC(Cc1ccc(NCCCN2CCOc3ccccc32)cc1)C(=O)O (stereo not shown) [Example 3, 3-[4-{3-(3,4-Dihydro-2H-benzo[b][1,4]oxazin-4-yl)propylamino}phenyl]-2-ethoxypropanoic acid arginine salt], the “HDL (%) ↑” value [1] was 254%, the “Total Cholesterol (%) ↓” value [1] was 69% and the “Triglyceride (%) ↓” value [1] was 77%. The “LDL (%) ↓” value [1] was 80%, the “VLDL (%) ↓” value [1] was 77% and the “Reduction in Blood Glucose Level (%)” value [2] was 33%. For the same compound, the “Triglyceride Lowering (%)” value [2] was 29%, the PPARγ [3] was 3.0 and the “Triglyceride Lowering (%)” value [4] was 70%. The PPARα [5] was 4.7.
In the case of CCOC(Cc1ccc(NCCCN2CCOc3cc(F)ccc32)cc1)C(=O)O (stereo not shown) [Example 18, 3-[4-{3-(7-Fluoro-3,4-dihydro-2H-benzo[b][1,4]oxazin-4-yl)propylamino}phenyl]-2-ethoxypropanoic acid arginine salt], the “HDL (%) ↑” value [1] is reported as 260%, the “Total Cholesterol (%) ↓” value [1] is reported as 64% and the “Triglyceride (%) ↓” value [1] is reported as 77%. For the same compound, the “LDL (%) ↓” value [1] was 74%, the “VLDL (%) ↓” value [1] was 77% and the “Reduction in Blood Glucose Level (%)” value [2] was 16%. The “Triglyceride Lowering (%)” value [2] was 35%, the PPARγ [3] was 1.2 and the “Triglyceride Lowering (%)” value [4] was 61%. The PPARα [5] was 4.4.
In the case of CCOC(Cc1cccc(NCCCN2CCOc3ccccc32)c1)C(=O)O (stereo not shown) [Example 15, 3-[3-{3-(3,4-Dihydro-2H-benzo[b][1,4]oxazin-4-yl)propylamino}phenyl]-2-ethoxypropanoic acid arginine salt], the “Triglyceride Lowering (%)” value [4] is reported as 43%.
In the case of CCCCCCCN(CCN1C(=O)COc2ccccc21)c1ccc(CC(OCC)C(=O)O)cc1 (stereo not shown) [Example 6, 3-[4-N-Heptyl-N-{2-(3-oxo-3,4-dihydro-2H-benzo[b][1,4]oxazin-4-yl)ethylamino}phenyl]-2-ethoxypropanoic acid arginine salt], the “Triglyceride Lowering (%)” value [4] is reported as 27%.
CCOC(Cc1ccc(NCc2ccc(OCCCN3CCOc4ccccc43)cc2)cc1)C(=O)O (stereo not shown) [Example 23, 2-Ethoxy-3-[4-{4-(3-(3,4-dihydro-2H-benzo[b][1,4]oxazin-4-yl)propyloxy)benzyl}aminophehyl]propanoic acid arginine salt] gave a PPARγ [3] of 4.4 and a PPARα [5] of 4.2.
CCOC(Cc1ccc(NCCCN2CCSc3ccccc32)cc1)C(=O)O (stereo not shown) [Example 27, 2-Ethoxy-3-[4-{3-3,4-dihydro-2H-benzo[b][1,4]thiazin-4-yl)propylamino}phenyl]propanoic acid arginine salt] gave a PPARγ [3] of 3.5 and a PPARα [5] of 4.3.
CCCCCCCN(CC(=O)N1CCOc2ccccc21)Cc1ccc(CC(OCC)C(=O)O)cc1 (stereo not shown) [Example 9, 2-Ethoxy-3-[4-{N-heptyl-N-(2-(3,4-dihydro-2H-benzo[b]oxazin-4-yl)-2-oxoethyl)aminomethyl}phenyl]propanoic acid arginine salt] showed a PPARγ [3] of 6.2 and a PPARα [5] of 4.6.

— patent publication US7365064B2, “Benzoxazine and benzothiazine derivatives and pharmaceutical compositions containing them” (Dr. Reddy's Laboratories Limited, priority 2001, dated 2008)
